Results: patent US9260756B2, “Esophageal microRNA expression profiles in eosinophilic esophagitis” (CHILDREN'S HOSPITAL MEDICAL CENTER, priority 2012, dated 2016)

Columns and labels:
[1] = system: miR-375; test: qRT-PCR of miR-375 in esophageal biopsies of EE patients; format: in vivo, human; details: EE patients that responded to therapy, qPCR normalized to U6
Description: Patients were selected without regard to age, race, or sex. Normal patients presented to the clinic with symptoms consistent with gastroesophageal reflux disease or EE, but the endoscopic and histologic findings for these patients were normal. […] The active chronic esophagitis patients had eosinophil counts of 1-15 per 400×hpf in the esophageal biopsies. Patients with systemic or swallowed topical glucocorticoid use were excluded from the selection of active EE or active chronic esophagitis patients.
Levels of miRNA expression were measured quantitatively by using the TaqMan MicroRNA Assays (Applied Biosystems), following the manufacturer's protocol. The expression levels were normalized to the U6 endogenous control. Relative expression was calculated as previously described (Lu, T. et al. J. Immunol. 182:4994-5002 (2009)).

[2] = biological target: T1, IGF1R (Mus musculus, UniProt Q60751); test: IGF1R expression by western blot after picropodophyllin treatment; format: cell-based; details: day 10, after 2-day treatment with 2 μM picropodophyllin, both miR-223+/+ and miR-223-/- cultures
T1 construct: endogenous in cells; host or cells: bone marrow-derived eosinophil (progenitor) cultures from miR-223+/+ and miR-223-/- mice
Experimental: Cells were rapidly washed in phosphate buffered saline and lysed in M-PER mammalian protein extraction reagent (Pierce, Rockford, Ill.), according to the manufacturer's protocol. Protease inhibitor cocktails (Pierce) and phosphatase inhibitor cocktails (Pierce) were added to the M-PER protein extraction reagent immediately before lysis. Western blot analysis was performed, as described in a previous protocol (Lim, E. et al. J. Biol. Chem. 286:13193-204 (2011)). The assay was conducted using an anti-IGF1R antibody (Cell Signaling Technology, Danvers, Mass.) and an anti-GAPDH antibody (Abcam, Cambridge, UK).
(§1) Bone marrow-derived eosinophils were re-suspended at a concentration of 1×10^6 cells/ml and treated with DMSO or 2 μM of picropodophyllin at day 8 (Yin, S. et al. Neuro. Oncol. 12:19-27 (2010)). Cell growth was determined by cell counting using a hemacytometer on day 10 and day 12. Cell lysates were collected on day 10, and levels of IGF1R expression were determined by western blot.

[3] = system: bone marrow-derived eosinophils; test: Cell growth after picropodophyllin treatment, cell counting using a hemacytometer; format: cell-based, mouse; details: for growth of miR-223+/+ and miR-223-/- eosinophil cultures: 2 μM picropodophyllin from day 8, counted day 10 and day 12, vs DMSO
Experimental: Bone marrow cells were collected from femurs and tibia of the mice, and the stem/progenitor cell-enriched low-density fraction was isolated by gradient centrifugation using the Histopaque 1083 (Sigma), according to the manufacturer's protocol. The low density fraction of bone marrow cells were cultured in IMDM with 10% FBS, 100 U/ml penicillin, and 100 μg/ml streptomycin supplemented with 100 ng/mL stem cell factor and 100 ng/mL FLT-3 ligand (Peprotech) from day 0 to day 4.
The stem cell factor and FLT-3 ligand were replaced with 10 ng/mL IL-5 on day 4, and the cells were cultured for an additional 10-12 days in the presence of IL-5 (Dyer, K. et al. J. Immunol. 181:4004-9 (2008)). The culture media was changed every other day, and cells were counted and concentration was adjusted to 1×10^6/mL during each media change. Eosinophil maturity was assessed by FACS staining for CCR3 and Siglec-F and/or Diff-Quik (Fisher Scientific) staining of cytospin preparations. Eosinophil progenitor growth was assessed by counting the cells every 2 days using a hemacytometer.
as §1

[4] = system: human esophageal epithelial cells; test: miRNA expression in IL-13-stimulated human esophageal epithelial cells (microarray, qPCR); format: cell-based; details: after 24 and 48 hours of IL-13 stimulation, normalized to U6
Experimental: (§2) Human esophageal epithelial cells derived from human patient biopsies were cultured, as described in a previous protocol (Blanchard, C. et al. J. Allergy Clin. Immunol. 120:1292-300 (2007)). The human bronchial epithelial cell line HBEC was cultured as previously described (Ramirez, R. et al. Cancer Res. 64:9027-34 (2004)). The normal human bronchial epithelial cells (Lonza, Basel, Switzerland) were cultured, as described in a previous protocol (Kariyawasam, H. et al. J. Allergy Clin. Immunol. 124:454-462 (2009)). The U937 monocytes and Jurkat T cells were cultured in RPMI 1640 medium (Fisher Scientific) supplemented with 10% FBS, 100 U/mL penicillin, and 100 μg/ml streptomycin. […]
(§3) Human esophageal epithelial cells and bronchial epithelial cells were stimulated with media or 100 ng/mL IL-13 for 24 hours. […] RNA quality was assessed using the 2100 bioanalyzer (Agilent Technologies), and only samples with RNA integrity number >8 were used. […]
(§4) The miRNAs differentially regulated between unstimulated and IL-13 stimulated samples were identified by normalizing the expression data to the average of two endogenous control probes, namely RNU44 and RNU48, then filtered on cycle threshold values <35 and at least a 2-fold change between unstimulated and IL-13-stimulated samples. Statistical significance was determined at p<0.05 with Benjamini Hochberg false discovery rate correction. […]

[5] = system: human bronchial epithelial cells; test: miRNA expression in IL-13-stimulated human bronchial epithelial cells (microarray, qPCR); format: cell-based; details: normal human bronchial epithelial cells, after 24 and 48 hours of IL-13 stimulation, normalized to U6
Experimental: as §2, §3, §4

T1 sequence (Q60751 31-1373): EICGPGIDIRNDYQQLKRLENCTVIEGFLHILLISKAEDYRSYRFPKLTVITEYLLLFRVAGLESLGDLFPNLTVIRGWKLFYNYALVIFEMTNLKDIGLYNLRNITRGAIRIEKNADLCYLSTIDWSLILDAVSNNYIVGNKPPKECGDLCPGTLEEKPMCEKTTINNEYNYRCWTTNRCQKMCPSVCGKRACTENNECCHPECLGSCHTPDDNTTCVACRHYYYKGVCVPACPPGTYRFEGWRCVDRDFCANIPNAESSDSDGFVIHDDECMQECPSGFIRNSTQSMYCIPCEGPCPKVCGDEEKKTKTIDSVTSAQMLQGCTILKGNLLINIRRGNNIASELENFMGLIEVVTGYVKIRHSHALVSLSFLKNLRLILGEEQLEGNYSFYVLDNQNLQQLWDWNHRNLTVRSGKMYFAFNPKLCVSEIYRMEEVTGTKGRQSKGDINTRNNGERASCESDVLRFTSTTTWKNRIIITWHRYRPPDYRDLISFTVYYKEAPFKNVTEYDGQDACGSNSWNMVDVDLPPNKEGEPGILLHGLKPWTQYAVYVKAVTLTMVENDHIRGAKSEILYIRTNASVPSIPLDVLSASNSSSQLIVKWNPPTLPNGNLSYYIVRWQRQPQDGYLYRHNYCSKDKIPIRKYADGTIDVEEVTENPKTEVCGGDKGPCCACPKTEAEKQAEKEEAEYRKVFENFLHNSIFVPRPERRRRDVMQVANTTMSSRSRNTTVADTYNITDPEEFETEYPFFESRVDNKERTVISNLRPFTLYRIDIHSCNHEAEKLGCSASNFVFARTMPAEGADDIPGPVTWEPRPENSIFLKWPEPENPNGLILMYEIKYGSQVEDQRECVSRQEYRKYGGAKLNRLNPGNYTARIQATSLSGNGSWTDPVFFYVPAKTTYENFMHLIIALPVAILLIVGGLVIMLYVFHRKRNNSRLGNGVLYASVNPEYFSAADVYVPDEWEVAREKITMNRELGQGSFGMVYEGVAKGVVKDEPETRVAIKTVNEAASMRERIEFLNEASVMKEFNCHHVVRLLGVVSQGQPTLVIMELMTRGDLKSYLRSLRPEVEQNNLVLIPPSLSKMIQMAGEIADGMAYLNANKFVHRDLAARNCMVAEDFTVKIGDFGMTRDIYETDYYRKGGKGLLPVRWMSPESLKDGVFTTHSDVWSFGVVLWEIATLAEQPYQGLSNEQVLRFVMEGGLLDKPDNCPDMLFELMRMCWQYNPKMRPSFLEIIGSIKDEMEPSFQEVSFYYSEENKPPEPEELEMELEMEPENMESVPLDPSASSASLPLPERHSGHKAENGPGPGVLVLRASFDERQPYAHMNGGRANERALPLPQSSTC

## CCC(=O)O[C@]1(C(=O)SCF)[C@H](C)C[C@H]2[C@@H]3C[C@H](F)C4=CC(=O)C=C[C@]4(C)[C@@]3(F)[C@@H](O)C[C@@]21C [fluticasone propionate]
[1]
  miR-375 levels in esophageal tissue: comparable to normal healthy controls

## COc1cc([C@@H]2c3cc4c(cc3[C@H](O)[C@H]3COC(=O)[C@@H]23)OCO4)cc(OC)c1OC [picropodophyllin]
[2]
  IGF1 receptor expression level: nearly complete down-regulation
[3]
  growth of miR-223+/+ and miR-223-/- eosinophil cultures: inhibited
[3]; listed as pricopodphyllin
  growth of miR-223+/+ and miR-223-/- eosinophil cultures: inhibits
[3]; 2 μM picropodophyllin, miR-223-/- vs miR-223+/+ cultures
  increased proliferation seen in miR-223-/- cultures: completely reversing

## IL-13: cytokine used at 100 ng/mL to stimulate human esophageal and bronchial epithelial cells
[4]
  miR-375 expression: down-regulated
[5]
  miR-375 expression: down-regulated
